Where two headings read alike, the source gives them in different places. Where only a bound is given, the exact number is not on record here.

The source of these data is US20070092551A1, “Therapeutic agent” (TAKARA BIO INC., priority 2003, published 2007).

This test relates to mature adipocytes (3T3-L1 cells). In words: Enhancing action on glucose uptake (2-deoxyglucose) into mature adipocytes. It is filed as cell-based. The conditions noted are these: Mus musculus.
Setting [1] is: 3T3-L1, read-out: Enhancing Action on Glucose Uptake.
Where [2] appears, read: 3T3-L1, 10 μM, X=(S−N)/(P−N) of 2-deoxyglucose uptake, P=insulin 1 μg/mL, read-out: Enhancing Action on Glucose Uptake.
[3] abbreviates: 3T3-L1, 30 μM, X=(S−N)/(P−N) of 2-deoxyglucose uptake, P=insulin 1 μg/mL, read-out: Enhancing Action on Glucose Uptake.

`COc1ccc(C(=O)/C=C/c2ccc(O)cc2)c(O)c1CC=C(C)C` [4-Hydroxyderricin, 4,2′-Dihydroxy-3′-prenyl-4′-methoxychalcone]: under setting [1], the activation at 3 µM lay in the range of 60 to 100%, the activation at 10 µM is greater than 100% and the activation at 30 µM is greater than 100%.

Regarding `COc1ccc(C(=O)/C=C/c2ccc(O)cc2)c(O)c1C/C=C(\C)CCC=C(C)C` [Xanthoangelol F, 4,2′-Dihydroxy-3′-geranyl-4′-methoxychalcone], the activation at 3 µM (3T3-L1, 3 μM, X=(S−N)/(P−N) of 2-deoxyglucose uptake, P=insulin 1 μg/mL, read-out: Enhancing Action on Glucose Uptake) is 30 to 60%. For the same compound, the activation at 10 µM under setting [2] was greater than 100%. The activation at 30 µM under setting [3] was greater than 100%.

Consider `COc1ccc(C(=O)/C=C/c2ccc(O)cc2)c2c1CC(O)C(C)(C)O2` (stereo not drawn) [Xanthoangelol H], for which the activation at 30 µM under setting [3] fell in the range of 30 to 60%.

Take `CC(C)=CCC/C(C)=C/Cc1c(O)ccc(C(=O)/C=C/c2ccc(O)cc2)c1O` [Xanthoangelol, 4,2′,4′-Trihydroxy-3′-geranylchalcone]: the activation at 10 µM under setting [2] lay within 30 to 60%. Also, the activation at 30 µM under setting [3] was greater than 100%.
